Assays:
[1] = tested on: 34 human cancer cell lines; test: In vitro cell growth assay, Sulphorhodamine B (SRB); assay type: cell-based; details: 48 h exposure
Experimental: Cell proliferation was evaluated by Sulphorhodamine B (SRB) assay where the amount of dye bound to the cells after staining gives a measure of cell growth. Refer to: JNCI, vol 83, No. 11, Jun. 5, 1991, which is incorporated herein by reference.
Briefly, cells (34 human cancer cell lines represented by bladder, breast, CNS, colon, epidermoid, lung, ovarian, melanoma, prostate, renal and uterine cancers) were seeded on a 96-well cell culture plates at a concentration of 10,000 cells per well and incubated at 37 degree C. in a CO2 incubator. Twenty-four hours later, cells were treated with different concentrations of […] dissolved in DMSO to a final concentration of 0.05% in the culture medium and exposed for 48 h. Cells were fixed by adding ice-cold 50% trichloroacetic acid (TCA) and incubating for 1 h at 4° C. The plates were washed with distilled water, air dried and stained with SRB solution (0.4% wt/vol in 1% Acetic acid) for 10 min at room temperature. Unbound SRB was removed by washing thoroughly with 1% acetic acid and the plates were air-dried. The bound SRB stain was solubilized with 10 mM Tris buffer, and the optical densities were read on a spectrophotometric plate reader at a single wavelength of 515 nm. […] From the optical densities the percentage growths were calculated using the following formulae: […]

[2] = tested on: Human bone marrow mononuclear cells; test: Human bone marrow assay (CFU-GM colonies); assay type: cell-based; details: human
Experimental: Methocult.TM. GF (Cat No: H4534, Poietics, Biowhittakar, USA) medium comprising Methycellulose in iscove's MDM, Fetal bovine serum, Bovine serum albumin, 2-Mercaptoethanol, L-Glutamine, rhStem cell factor, rhGM-CSF and rhIL-3 was used for the assay. Human bone marrow mononuclear cells (Cat No. 2M-125C, Poietics, Biowhittakar, USA) were mixed with Methocult GF and the cell density was adjusted to 3×10^5 cells/ml. From this preparation, 500 μL aliquots were made and […] of 20× drug solution or vehicle was added to each aliquot and mixed thoroughly. 100 μL of clonogenic medium was plated into each well and the plates were allowed to gel at 4° C. for 15 minutes. Plates were incubated at 37 degree C. in a fully humidified atmosphere of 5% CO2 in an incubator for 14 days. CFU-GM colonies were counted under an inverted microscope as aggregates of 50 cells or more. The percentage colony inhibition was calculated using the following formula: 100−[(number of colonies in drug treated wells/Number of colonies in control wells)×100].

[3] = tested on: Saos-2 cells over expressing functional BCRP#4; test: cells; assay type: cell-based, human; details: Homo sapiens, SAOS-2, 144 h, read-out: BCRP mut#4 (IC50 (nM))
Experimental: (§1) The anticancer effect of 5(S)-(2′-hydroxyethoxy)-20(S)-camptothecin & 5(R)-(2′-hydroxyethoxy)-20(S)-camptothecin were evaluated versus the racemate 5(RS)-(2′-hydroxyethoxy)-20(S)-camptothecin on Saos-2 cells over expressing functional BCRP#4 and non-functional BCRP mut#10. The human osteosarcoma cell line, Saos-2, was obtained from ATCC (American Type Culture Collection, Cat#HTB-85, Manassas, Va.) and were maintained in DMEM containing 10% fetal bovine serum, 1% penicillin/streptomycin, and 2 mM glutamine. Saos-2 cells were transfected with either BCRP#4 to over express functional BCRP or BCRP#10 to over express non-functional BCRP transporter. The cells were plated in 96-well plates at a density of 1000 cells per each well in a 0.1 ml of medium and allowed to attach overnight. The next morning the medium was gently aspirated and serial dilutions of the compounds to be tested were added. The cells were incubated at 37° C. in a 5% CO2 incubator. After 6 days of exposure to the test drugs, 10µl of Alamar blue was added aseptically to each well and the plates were returned to the incubator for 6 hr. The amount of the fluorescent dye produced was measured on a Cytofluor.RTM. 2300 (Millipore, Bedford, Mass.) using an excitation wavelength of 530 nm and emission wavelength of 590 nm. The relative fluorescence units obtained were used to calculate the percentage growth at each concentration in relation to the untreated control values. From the percentage growth values the IC50 (inhibitory concentration required to inhibit the cell growth by 50% compared to control cells growth) values were derived.

[4] = tested on: Saos-2 cells over expressing non-functional BCRP mut#10; test: cells; assay type: cell-based, human; details: Homo sapiens, SAOS-2, 144 h, read-out: BCRP mut#10 (IC50 (nM))
Experimental: as §1

SMILES: CC[C@@]1(O)C(=O)OCc2c1cc1n(c2=O)[C@H](OCCO)c2cc3ccccc3nc2-1 [5(R)-(2′-hydroxyethoxy)-20(S)-camptothecin, reference compound]
- GI50 [1]: 14.6 µM
- Safety Margin GI90/GI50 [2]: 0.06
- IC50 [3]: > 2000 nM
- IC50 [4]: 1300 nM
